Results as given in patent US6869589B1, “Cryptate compounds and methods for diagnosis and therapy” (Australian Nuclear Science & Technology Organization, priority 1999, dated 2005).

Key:
[1] = Effect of pH on complexation of ^64Cu by compound (3), monitored by ITLC-SG; assay type: physicochemical
Protocol: The effect of pH on complexation of ^64Cu by compound (3) was investigated. Compound (3) was diluted into buffers of pH 3.0, 4.0, 5.0, 6.0, 7.0, 8.0 and 9.0. A sufficient amount of ^64Cu was added and the rate of complexation was monitored at (t=1, 2.5, 5, 10, 60 and 90 mins) (see method below) by Instant Thin Layer Chromatography (ITLC-SG). Complete complexation (>98%) was achieved within 1 min for all pH ≧4.0. The rate of complexation at pH 3.0 was slower. (FIG. 2).
Monitoring Complexation by ITLC-SG
ITLC-SG strips (10 cm×0.8 cm) were spotted with ˜1 μL of reaction mixture 1 cm from the bottom of the strip (origin) and were developed in a solvent containing 0.1 M sodium acetate (pH 4.5): ethanol=9:1. ^64Cu-compound (3) remains at the origin (Rf=0.0), and “free” ^64Cu appears at the solvent front (Rf=1.0).

[2] = mouse, in vivo
Protocol: The biodistribution of the ^64Cu complexes of compounds (1), (3) and (4) (0.10 ml intravenous injection) were evaluated in balb/c mice (5 animals per time point) at 3, 5, 10, 15, 20 and 30 minute time intervals. Biodistribution studies were performed in duplicate.

In the case of `Nc1ccc(CNC23CNCCNCC(N)(CNCCNC2)CNCCNC3)cc1` [compound (3)], the “Time to complete complexation of ^64Cu” value ([1]; all pH ≧4.0) is reported as ≤ 1 min, the “Complexation of ^64Cu (complete complexation)” value ([1]; all pH ≧4.0, within 1 min, ITLC-SG) is reported as > 98% and the “Rate of complexation of ^64Cu” value ([1]; pH 3.0, compared with pH ≧4.0) is reported as “slower”. The “Clearance of the complex (biodistribution, in words)” value [2] was “clear rapidly from the system”.
